Data as given in ChEMBL document CHEMBL1629608, “Variations in amino acid composition of antisense peptide-phosphorodiamidate morpholino oligomer affect potency against Escherichia coli in vitro and in vivo” (Antimicrob Agents Chemother, 2009).
Values after ≈ are worked out from the molar mass of the structure shown.

Tested on: Escherichia coli
Test: Antibacterial activity against Escherichia coli K-12 W3110 by microdilution method
Type: functional
Conditions: K-12 substr. W3110

MIC [µM]	Structure (SMILES)
5 (≈ 26.6 µg/mL)	Cc1cn([C@H]2CN(P(=O)(OC[C@@H]3CN(P(=O)(OC[C@@H]4CN(P(=O)(OC[C@@H]5CN(P(=O)(OC[C@@H]6CN(P(=O)(OC[C@@H]7CN(P(=O)(OC[C@@H]8CN(P(=O)(OC[C@@H]9CN(P(=O)(OC[C@@H]%10CNC[C@H](n%11cnc%12c(=O)[nH]c(N)nc%12%11)O%10)N(C)C)C[C@H](n%10cc(C)c(=O)[nH]c%10=O)O9)N(C)C)C[C@H](n9cnc%10c(=O)[nH]c(N)nc%109)O8)N(C)C)C[C@H](n8cnc9c(N)ncnc98)O7)N(C)C)C[C@H](n7cc(C)c(=O)[nH]c7=O)O6)N(C)C)C[C@H](n6cnc7c(N)ncnc76)O5)N(C)C)C[C@H](n5cnc6c(=O)[nH]c(N)nc65)O4)N(C)C)C[C@H](n4ccc(N)nc4=O)O3)N(C)C)C[C@@H](COP(=O)(N(C)C)N3C[C@@H](COP(=O)(N(C)C)N4C[C@@H](COP(=O)(N(C)C)N5CCN(C(=O)CCNC(=O)CCCCCNC(=O)[C@@H](Cc6ccccc6)NC(=O)[C@@H](Cc6ccccc6)NC(=O)[C@@H](CCCNC(=N)N)NC(=O)[C@@H](Cc6ccccc6)NC(=O)[C@@H](Cc6ccccc6)NC(=O)[C@@H](CCCNC(=N)N)NC(=O)[C@@H](Cc6ccccc6)NC(=O)[C@H](Cc6ccccc6)NC(=O)[C@H](N)CCCNC(=N)N)CC5)O[C@@H](n5ccc(N)nc5=O)C4)O[C@@H](n4cc(C)c(=O)[nH]c4=O)C3)O2)c(=O)[nH]c1=O (stereo partly drawn)
> 80	Cc1cn([C@H]2CN(P(=O)(OC[C@@H]3CN(P(=O)(OC[C@@H]4CN(P(=O)(OC[C@@H]5CN(P(=O)(OC[C@@H]6CN(P(=O)(OC[C@@H]7CN(P(=O)(OC[C@@H]8CN(P(=O)(OC[C@@H]9CN(P(=O)(OC[C@@H]%10CNC[C@H](n%11cnc%12c(=O)[nH]c(N)nc%12%11)O%10)N(C)C)C[C@H](n%10cc(C)c(=O)[nH]c%10=O)O9)N(C)C)C[C@H](n9cnc%10c(=O)[nH]c(N)nc%109)O8)N(C)C)C[C@H](n8cnc9c(N)ncnc98)O7)N(C)C)C[C@H](n7cc(C)c(=O)[nH]c7=O)O6)N(C)C)C[C@H](n6cnc7c(N)ncnc76)O5)N(C)C)C[C@H](n5cnc6c(=O)[nH]c(N)nc65)O4)N(C)C)C[C@H](n4ccc(N)nc4=O)O3)N(C)C)C[C@@H](COP(=O)(N(C)C)N3C[C@@H](COP(=O)(N(C)C)N4C[C@@H](COP(=O)(N(C)C)N5CCN(C(=O)CCNC(=O)CCCCCNC(=O)[C@@H](N)CCCNC(=O)[C@H](Cc6ccccc6)NC(=O)[C@H](Cc6ccccc6)NC(=O)[C@@H](N)CCCNC(=O)[C@H](Cc6ccccc6)NC(=O)[C@H](Cc6ccccc6)NC(=O)[C@@H](N)CCCNC(=O)[C@H](Cc6ccccc6)NC(=O)[C@H](Cc6ccccc6)NC(=O)[C@@H](N)CCCN)CC5)O[C@@H](n5ccc(N)nc5=O)C4)O[C@@H](n4cc(C)c(=O)[nH]c4=O)C3)O2)c(=O)[nH]c1=O (stereo partly drawn)
20 (≈ 108 µg/mL)	Cc1cn([C@H]2CN(P(=O)(OC[C@@H]3CN(P(=O)(OC[C@@H]4CN(P(=O)(OC[C@@H]5CN(P(=O)(OC[C@@H]6CN(P(=O)(OC[C@@H]7CN(P(=O)(OC[C@@H]8CN(P(=O)(OC[C@@H]9CN(P(=O)(OC[C@@H]%10CNC[C@H](n%11cnc%12c(=O)[nH]c(N)nc%12%11)O%10)N(C)C)C[C@H](n%10cc(C)c(=O)[nH]c%10=O)O9)N(C)C)C[C@H](n9cnc%10c(=O)[nH]c(N)nc%109)O8)N(C)C)C[C@H](n8cnc9c(N)ncnc98)O7)N(C)C)C[C@H](n7cc(C)c(=O)[nH]c7=O)O6)N(C)C)C[C@H](n6cnc7c(N)ncnc76)O5)N(C)C)C[C@H](n5cnc6c(=O)[nH]c(N)nc65)O4)N(C)C)C[C@H](n4ccc(N)nc4=O)O3)N(C)C)C[C@@H](COP(=O)(N(C)C)N3C[C@@H](COP(=O)(N(C)C)N4C[C@@H](COP(=O)(N(C)C)N5CCN(C(=O)CCNC(=O)CCCCCNC(=O)[C@H](CCCCN)NC(=O)CCCCNC(=O)[C@H](CCCCN)NC(=O)[C@H](CCCCN)NC(=O)CCCCNC(=O)[C@H](CCCCN)NC(=O)[C@H](CCCCN)NC(=O)CCCCNC(=O)[C@H](CCCCN)NC(=O)[C@H](CCCCN)NC(=O)CCCCNC(=O)[C@@H](N)CCCCN)CC5)O[C@@H](n5ccc(N)nc5=O)C4)O[C@@H](n4cc(C)c(=O)[nH]c4=O)C3)O2)c(=O)[nH]c1=O (stereo partly drawn)
> 80	Cc1cn([C@H]2CN(P(=O)(OC[C@@H]3CN(P(=O)(OC[C@@H]4CN(P(=O)(OC[C@@H]5CN(P(=O)(OC[C@@H]6CN(P(=O)(OC[C@@H]7CN(P(=O)(OC[C@@H]8CN(P(=O)(OC[C@@H]9CN(P(=O)(OC[C@@H]%10CNC[C@H](n%11cnc%12c(=O)[nH]c(N)nc%12%11)O%10)N(C)C)C[C@H](n%10cc(C)c(=O)[nH]c%10=O)O9)N(C)C)C[C@H](n9cnc%10c(=O)[nH]c(N)nc%109)O8)N(C)C)C[C@H](n8cnc9c(N)ncnc98)O7)N(C)C)C[C@H](n7cc(C)c(=O)[nH]c7=O)O6)N(C)C)C[C@H](n6cnc7c(N)ncnc76)O5)N(C)C)C[C@H](n5cnc6c(=O)[nH]c(N)nc65)O4)N(C)C)C[C@H](n4ccc(N)nc4=O)O3)N(C)C)C[C@@H](COP(=O)(N(C)C)N3C[C@@H](COP(=O)(N(C)C)N4C[C@@H](COP(=O)(N(C)C)N5CCN(C(=O)CCNC(=O)CCCCCNC(=O)[C@H](CCCNC(=N)N)NC(=O)[C@@H](NC(=O)[C@@H](NC(=O)[C@H](CCCNC(=N)N)NC(=O)[C@@H](NC(=O)[C@@H](NC(=O)[C@H](CCCNC(=N)N)NC(=O)[C@@H](NC(=O)[C@@H](NC(=O)[C@@H](N)CCCNC(=N)N)C(C)C)C(C)C)C(C)C)C(C)C)C(C)C)C(C)C)CC5)O[C@@H](n5ccc(N)nc5=O)C4)O[C@@H](n4cc(C)c(=O)[nH]c4=O)C3)O2)c(=O)[nH]c1=O (stereo partly drawn)
20 (≈ 100 µg/mL)	Cc1cn([C@H]2CN(P(=O)(OC[C@@H]3CN(P(=O)(OC[C@@H]4CN(P(=O)(OC[C@@H]5CN(P(=O)(OC[C@@H]6CN(P(=O)(OC[C@@H]7CN(P(=O)(OC[C@@H]8CN(P(=O)(OC[C@@H]9CN(P(=O)(OC[C@@H]%10CNC[C@H](n%11cnc%12c(=O)[nH]c(N)nc%12%11)O%10)N(C)C)C[C@H](n%10cc(C)c(=O)[nH]c%10=O)O9)N(C)C)C[C@H](n9cnc%10c(=O)[nH]c(N)nc%109)O8)N(C)C)C[C@H](n8cnc9c(N)ncnc98)O7)N(C)C)C[C@H](n7cc(C)c(=O)[nH]c7=O)O6)N(C)C)C[C@H](n6cnc7c(N)ncnc76)O5)N(C)C)C[C@H](n5cnc6c(=O)[nH]c(N)nc65)O4)N(C)C)C[C@H](n4ccc(N)nc4=O)O3)N(C)C)C[C@@H](COP(=O)(N(C)C)N3C[C@@H](COP(=O)(N(C)C)N4C[C@@H](COP(=O)(N(C)C)N5CCN(C(=O)CCNC(=O)CCCCCNC(=O)CCCCCNC(=O)[C@H](CCCNC(=N)N)NC(=O)CCCCCNC(=O)CCCCCNC(=O)[C@H](CCCNC(=N)N)NC(=O)CCCCCNC(=O)CCCCCNC(=O)[C@@H](N)CCCNC(=N)N)CC5)O[C@@H](n5ccc(N)nc5=O)C4)O[C@@H](n4cc(C)c(=O)[nH]c4=O)C3)O2)c(=O)[nH]c1=O (stereo partly drawn)

The next lines start with the molecule.

Structure (SMILES)	MIC [µM]
Cc1cn([C@H]2CN(P(=O)(OC[C@@H]3CN(P(=O)(OC[C@@H]4CN(P(=O)(OC[C@@H]5CN(P(=O)(OC[C@@H]6CN(P(=O)(OC[C@@H]7CN(P(=O)(OC[C@@H]8CN(P(=O)(OC[C@@H]9CN(P(=O)(OC[C@@H]%10CNC[C@H](n%11cnc%12c(=O)[nH]c(N)nc%12%11)O%10)N(C)C)C[C@H](n%10cc(C)c(=O)[nH]c%10=O)O9)N(C)C)C[C@H](n9cnc%10c(=O)[nH]c(N)nc%109)O8)N(C)C)C[C@H](n8cnc9c(N)ncnc98)O7)N(C)C)C[C@H](n7cc(C)c(=O)[nH]c7=O)O6)N(C)C)C[C@H](n6cnc7c(N)ncnc76)O5)N(C)C)C[C@H](n5cnc6c(=O)[nH]c(N)nc65)O4)N(C)C)C[C@H](n4ccc(N)nc4=O)O3)N(C)C)C[C@@H](COP(=O)(N(C)C)N3C[C@@H](COP(=O)(N(C)C)N4C[C@@H](COP(=O)(N(C)C)N5CCN(C(=O)CCNC(=O)CCCCCNC(=O)[C@H](CCCCN)NC(=O)CCCCCNC(=O)[C@H](CCCCN)NC(=O)CCCCCNC(=O)[C@H](CCCCN)NC(=O)CCCCCNC(=O)[C@H](CCCCN)NC(=O)CCCCCNC(=O)[C@H](CCCCN)NC(=O)CCCCCNC(=O)[C@@H](N)CCCCN)CC5)O[C@@H](n5ccc(N)nc5=O)C4)O[C@@H](n4cc(C)c(=O)[nH]c4=O)C3)O2)c(=O)[nH]c1=O (stereo partly drawn)	> 80
Cc1cn([C@H]2CN(P(=O)(OC[C@@H]3CN(P(=O)(OC[C@@H]4CN(P(=O)(OC[C@@H]5CN(P(=O)(OC[C@@H]6CN(P(=O)(OC[C@@H]7CN(P(=O)(OC[C@@H]8CN(P(=O)(OC[C@@H]9CN(P(=O)(OC[C@@H]%10CNC[C@H](n%11cnc%12c(=O)[nH]c(N)nc%12%11)O%10)N(C)C)C[C@H](n%10cc(C)c(=O)[nH]c%10=O)O9)N(C)C)C[C@H](n9cnc%10c(=O)[nH]c(N)nc%109)O8)N(C)C)C[C@H](n8cnc9c(N)ncnc98)O7)N(C)C)C[C@H](n7cc(C)c(=O)[nH]c7=O)O6)N(C)C)C[C@H](n6cnc7c(N)ncnc76)O5)N(C)C)C[C@H](n5cnc6c(=O)[nH]c(N)nc65)O4)N(C)C)C[C@H](n4ccc(N)nc4=O)O3)N(C)C)C[C@@H](COP(=O)(N(C)C)N3C[C@@H](COP(=O)(N(C)C)N4C[C@@H](COP(=O)(N(C)C)N5CCN(C(=O)CCNC(=O)CCCCCNC(=O)[C@H](Cc6ccccc6)NC(=O)[C@H](Cc6ccccc6)NC(=O)[C@H](CCCNC(=N)N)NC(=O)[C@H](Cc6ccccc6)NC(=O)[C@H](Cc6ccccc6)NC(=O)[C@@H](N)CCCNC(=N)N)CC5)O[C@@H](n5ccc(N)nc5=O)C4)O[C@@H](n4cc(C)c(=O)[nH]c4=O)C3)O2)c(=O)[nH]c1=O (stereo partly drawn)	20 (≈ 97.4 µg/mL)
Cc1cn([C@H]2CN(P(=O)(OC[C@@H]3CN(P(=O)(OC[C@@H]4CN(P(=O)(OC[C@@H]5CN(P(=O)(OC[C@@H]6CN(P(=O)(OC[C@@H]7CN(P(=O)(OC[C@@H]8CN(P(=O)(OC[C@@H]9CN(P(=O)(OC[C@@H]%10CNC[C@H](n%11cnc%12c(=O)[nH]c(N)nc%12%11)O%10)N(C)C)C[C@H](n%10cc(C)c(=O)[nH]c%10=O)O9)N(C)C)C[C@H](n9cnc%10c(=O)[nH]c(N)nc%109)O8)N(C)C)C[C@H](n8cnc9c(N)ncnc98)O7)N(C)C)C[C@H](n7cc(C)c(=O)[nH]c7=O)O6)N(C)C)C[C@H](n6cnc7c(N)ncnc76)O5)N(C)C)C[C@H](n5cnc6c(=O)[nH]c(N)nc65)O4)N(C)C)C[C@H](n4ccc(N)nc4=O)O3)N(C)C)C[C@@H](COP(=O)(N(C)C)N3C[C@@H](COP(=O)(N(C)C)N4C[C@@H](COP(=O)(N(C)C)N5CCN(C(=O)CCNC(=O)CCCCCNC(=O)[C@@H](N)CCCNC(=O)CCCCCNC(=O)[C@@H](N)CCCNC(=O)CCCCCNC(=O)[C@@H](N)CCCNC(=O)CCCCCNC(=O)[C@@H](N)CCCNC(=O)CCCCCNC(=O)[C@@H](N)CCCNC(=O)CCCCCNC(=O)[C@@H](N)CCCN)CC5)O[C@@H](n5ccc(N)nc5=O)C4)O[C@@H](n4cc(C)c(=O)[nH]c4=O)C3)O2)c(=O)[nH]c1=O (stereo partly drawn)	> 80
